Experimental findings from ChEMBL document CHEMBL3797063, “Evaluation of N-substituent structural variations in opioid receptor profile of LP1” (Bioorg Med Chem, 2016) are described below.

A short description of series [1]: Selectivity index, ratio of Ki for human KOR to Ki for rat MOR.
The target in series [2] is T1, Kappa-type opioid receptor (Homo sapiens, UniProt P41145). Kind of series: Displacement of [3H]-DPN from human KOR expressed in EE-HEK293 cell membranes by liquid scintillation counting.
Series [3] deals with Delta-type opioid receptor (Rattus norvegicus, UniProt P33533). Kind of series: Displacement of [3H]-DPN from rat DOR expressed in EE-HEK293 cell membranes by liquid scintillation counting. On the technique in general: In a radioligand displacement assay an active substance lowers the binding of a labelled ligand.
The species entered for another series is Rattus norvegicus. Briefly: Selectivity index, ratio of Ki for rat DOR to Ki for rat MOR.
Series [4] deals with Mu-type opioid receptor (Rattus norvegicus, UniProt P33535). Briefly: Displacement of [3H]-DPN from rat MOR expressed in EE-HEK293 cell membranes by liquid scintillation counting.
Series [5] has as its target T2, Mu-type opioid receptor (Cavia porcellus, UniProt P97266). Briefly: Agonist activity at MOR in Dunkin-Hartley guinea pig ileum assessed as inhibition of EFS-induced contractions incubated for 60 mins.
The target in series [6] is T3, Delta-type opioid receptor (Mus musculus, UniProt P32300). Kind of series: Antagonist activity at DOR in CD1 mouse vas deferens assessed as reduction in DPDPE-induced inhibition of EFS-evoked contractions incubated for 60 mins. Particulars: read-out: pA2 (converted). In kind it is tissue-based.
Series [7] addresses Delta-type opioid receptor (Mus musculus) (UniProt P32300). Briefly: (§1) Agonist activity at DOR in CD1 mouse vas deferens assessed as inhibition of EFS-induced contractions incubated for 60 mins. The class given is tissue-based.
Series [8] addresses T3, Delta-type opioid receptor. The description is as §1. The class given is tissue-based.
Series [9] has as its system Mus musculus. Kind of series: Effect on basal tail flick latencies in Swiss […] mouse at 1 to 15 mg/kg, sc during 90 mins by tail flick test. The class given is ADME, organism-based. Particulars: in vivo, 1.5 h. For orientation: Hot-plate and tail-flick tests time the reaction to a heat stimulus.
Series [10] has as its target T1, Kappa-type opioid receptor. Kind of series: Activity at human KOR expressed in EE-HEK293 cells assessed as pEC50 for effect on (-)U50,488H-induced response (reference value: […] +/- […]). In kind it is cell-based.
Series [11] deals with Mus musculus. Briefly: Reduction in morphine-induced antinociceptive effect in sc dosed Swiss […] mouse assessed as tail flick latencies dosed 45 mins before 5 mg/kg, sc morphine injection by tail flick test. The class given is ADME, organism-based. The settings on record: in vivo, 0.75 h.
Series [12] has as its target T2, Mu-type opioid receptor. Briefly: Antagonist activity at MOR in Dunkin-Hartley guinea pig ileum assessed as reduction in DAMGO-induced inhibition of EFS-induced contractions incubated for 60 mins. The class given is tissue-based. Particulars: read-out: pA2 (converted).

pEC50, pKi: −log10 of the molar value. Active and inactive are the calls of the source. The rule behind the calls is not given here.

Mu-type opioid receptor (Rattus norvegicus, UniProt P33535), sequence (P33535 whole entry): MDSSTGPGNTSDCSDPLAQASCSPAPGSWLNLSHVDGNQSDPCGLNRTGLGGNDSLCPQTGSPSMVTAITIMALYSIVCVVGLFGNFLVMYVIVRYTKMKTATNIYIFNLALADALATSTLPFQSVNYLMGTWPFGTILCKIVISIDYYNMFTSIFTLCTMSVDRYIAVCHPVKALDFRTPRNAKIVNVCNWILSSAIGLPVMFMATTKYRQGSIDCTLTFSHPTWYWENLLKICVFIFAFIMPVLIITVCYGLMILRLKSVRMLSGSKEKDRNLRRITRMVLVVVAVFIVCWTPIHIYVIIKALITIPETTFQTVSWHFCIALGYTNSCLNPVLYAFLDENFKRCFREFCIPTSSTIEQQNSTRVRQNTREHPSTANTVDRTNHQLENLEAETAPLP
T1 sequence (P41145 whole entry): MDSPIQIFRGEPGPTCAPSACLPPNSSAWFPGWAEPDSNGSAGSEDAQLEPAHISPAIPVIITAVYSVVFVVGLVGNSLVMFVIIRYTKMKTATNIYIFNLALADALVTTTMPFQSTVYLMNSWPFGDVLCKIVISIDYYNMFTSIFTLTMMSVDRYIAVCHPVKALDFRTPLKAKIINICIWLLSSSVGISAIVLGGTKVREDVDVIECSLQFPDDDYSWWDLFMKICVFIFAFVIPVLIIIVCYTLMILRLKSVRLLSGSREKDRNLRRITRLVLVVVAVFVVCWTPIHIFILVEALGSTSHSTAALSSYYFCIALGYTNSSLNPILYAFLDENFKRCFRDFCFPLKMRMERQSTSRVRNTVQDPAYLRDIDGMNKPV
Delta-type opioid receptor (Rattus norvegicus, UniProt P33533), sequence (P33533 whole entry): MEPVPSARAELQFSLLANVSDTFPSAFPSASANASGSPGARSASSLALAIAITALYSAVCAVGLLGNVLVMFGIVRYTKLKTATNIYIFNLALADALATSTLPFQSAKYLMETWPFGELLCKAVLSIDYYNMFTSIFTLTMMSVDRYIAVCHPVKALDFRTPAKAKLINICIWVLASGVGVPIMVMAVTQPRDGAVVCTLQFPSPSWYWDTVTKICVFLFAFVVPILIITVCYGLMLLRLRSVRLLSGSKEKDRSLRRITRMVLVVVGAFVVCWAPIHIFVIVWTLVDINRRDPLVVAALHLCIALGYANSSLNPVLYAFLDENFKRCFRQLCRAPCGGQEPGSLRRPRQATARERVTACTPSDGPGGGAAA
T3 sequence (P32300 whole entry): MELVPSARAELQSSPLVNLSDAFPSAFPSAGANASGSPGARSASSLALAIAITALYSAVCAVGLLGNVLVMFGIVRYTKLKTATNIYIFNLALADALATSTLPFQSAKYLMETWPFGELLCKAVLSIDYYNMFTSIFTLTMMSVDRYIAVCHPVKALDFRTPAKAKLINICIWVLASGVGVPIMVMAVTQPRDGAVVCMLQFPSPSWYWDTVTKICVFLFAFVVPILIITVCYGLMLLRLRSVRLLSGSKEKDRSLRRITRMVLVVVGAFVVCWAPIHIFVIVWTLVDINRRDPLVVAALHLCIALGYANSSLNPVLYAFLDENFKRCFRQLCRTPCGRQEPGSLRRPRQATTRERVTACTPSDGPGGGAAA
T2 sequence (P97266 whole entry): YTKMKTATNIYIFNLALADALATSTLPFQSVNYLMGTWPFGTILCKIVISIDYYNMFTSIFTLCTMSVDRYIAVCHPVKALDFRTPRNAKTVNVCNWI
Delta-type opioid receptor (Mus musculus), sequence (P32300 whole entry): as the sequence (P32300 whole entry) above

Regarding `C[C@H]1[C@H]2Cc3ccc(O)cc3[C@]1(C)CCN2CCC(=O)Nc1cccc2cccnc12`, the Ratio Ki in series [1] came to 0.07; in the series filed under Rattus norvegicus, 0.16. In addition, the pKi in [2] is 6.64; in series [3], 6.27; at Mu-type opioid receptor [4], 5.47.
With `C[C@H]1[C@H]2Cc3ccc(O)cc3[C@]1(C)CCN2CCC(=O)Nc1cnc2ccccc2c1`, the Ratio Ki in series [1] was 5.4; in the series listed under Rattus norvegicus, 0.62. Moreover, the pKi in series [2] was 5.19; in series [3] it was 6.13; on Mu-type opioid receptor [4], 5.92.
`C[C@H]1[C@H]2Cc3ccc(O)cc3[C@]1(C)CCN2CCC(=O)Nc1cccc2ncccc12`: the Ratio Ki came to 0.5 in [1] and 0.1 in the series listed under Rattus norvegicus. Besides, the pKi in series [2] is 5.81; in [3], 6.51; on Mu-type opioid receptor [4] it was 5.50.
Consider `C[C@@H](NC(=O)[C@@H](N)Cc1ccc(O)cc1)C(=O)NCC(=O)N(C)[C@@H](Cc1ccccc1)C(=O)NCCO` [DAMGO], for which the pEC50 on Mu-type opioid receptor [5] is 6.80.
In the case of `C[C@H]1[C@H]2Cc3ccc(O)cc3[C@]1(C)CCN2CCC(=O)Nc1ccccc1`, the Ratio Ki in series [1] came to 153; in the series filed under Rattus norvegicus it was 0.67. In series [6], the Kb is 63.1 nM. The pEC50 on Mu-type opioid receptor [5] was 6.10. The outcome in [7] was inactive.
For the compound `C[C@H]1[C@H]2Cc3ccc(O)cc3[C@]1(C)CCN2CCC(=O)Nc1ccc2ncccc2c1`, the Ratio Ki in [1] came to 1; in the series listed under Rattus norvegicus, 0.07. The pKi was 5.36 in [2], 6.48 in series [3] and 5.34 on Mu-type opioid receptor [4].
For the compound `C[C@H]1[C@H]2Cc3ccc(O)cc3[C@]1(C)CCN2CCC(=O)Nc1cccc2cnccc12`, the Ratio Ki amounted to 58 in [1] and 3.6 in the series filed under Rattus norvegicus. Besides, the values for the pKi (in series [2]; in [3]; on Mu-type opioid receptor [4]) were 5.54, 6.74 and 7.30, respectively. In addition, the negative logarithm of the EC50 (pEC50) at Mu-type opioid receptor [5] was 4.70; in series [8], 3.80.
On to `C[C@H]1[C@H]2Cc3ccc(O)cc3[C@]1(C)CCN2CCC(=O)Nc1cccc2ccccc12`, for which the Activity entry with Mus musculus [9] is “Non-toxic”; in the series with Mus musculus [11], “Dose-dependent effect”. Moreover, the Ratio Ki in series [1] came to 21.1; in the series filed under Rattus norvegicus, 5.5. The pEC50 in series [10] is 5.00. For the same compound, the AD50 with Mus musculus [11] was 2 mg/kg. Moreover, the Kb was 25.1 nM in series [6] and 2.51 nM on Mu-type opioid receptor [12]. For the same compound, the results for the pKi (in series [2]; in series [3]; on Mu-type opioid receptor [4]) were 6.10, 6.68 and 7.42, respectively. In addition, the outcome in series [7] was inactive.

By pKi is commonly meant the Ki on a negative log10 scale, so that one unit is a factor of ten. A higher pKi goes with a small Ki. In general, pEC50 refers to the EC50 on a negative log10 scale, so that one unit is a factor of ten.
